Values quoted from earlier work in patent publication US20140056862A1, “NUTRITIONAL COMPOSITIONS HAVING ALPHA-HICA AND ALPHA-KETOGLUTARATE” (Nestec S.A., priority 2011, published 2014).

System: intestinal mammalian target of rapamycin (mTOR); intestinal villi and crypts
Conditions: piglet stressed with LPS

For `O=C(O)CCC(=O)C(=O)O` [AKG, α-ketoglutarate], the crypt depth is listed as “reduced”, the villous height is listed as “increased” and the “phosphorylation of intestinal mammalian target of rapamycin (mTOR)” value (leading to increased protein synthesis and anti-inflammatory responses) is listed as “increased”.
